From patent US20090291983A1, “3-Oxoisoindoline-1-Carboxamide Derivatives as Analgesic Agents” (AstraZeneca AB, priority 2006, published 2009)

Molecular target: T1, voltage-gated sodium channel of interest (NaV1.7) (Homo sapiens, UniProt Q15858)
T1 construct: Gene(s) encoding the full-length protein of the voltage-gated sodium channel of interest are cloned and expressed; expressed in transfected cells
Assay: Whole-cell voltage clamp electrophysiology assay (automated patch-clamp)
Format: cell-based
Conditions: cells stably expressing the voltage-gated sodium channel
From the text: Gene(s) encoding the full-length protein of the voltage-gated sodium channel of interest are cloned and expressed under a suitable promoter in a suitable cell line, as well known in the art. The so constructed stable cell lines are used in screening assays to identify suitable compounds active on voltage-gated sodium channels. Suitable screening assays are as follows.
Electrophysiological recordings of sodium currents in cells stably expressing the voltage-gated sodium channel of interest confirms activity and provides a functional measure of the potency of compounds that specifically affect such channels.
Electrophysiological studies was performed using automated patch-clamp electrophysiology platforms, like IonWorks HT, IonWorks Quattro, PatchXpress, or any other suitable platform. The cell line expressing the voltage-gated sodium channel of interest was plated in appropriate well tissue plates, as provided by the manufacturer of the automated patch-clamp platforms. Suitable extracellular and intracellular buffer for such experiments was applied according to the instructions given by the manufacturer of the automated patch-clamp platforms. Cells that express the voltage-gated sodium channel protein of interest was exposed to drugs through the pipetting system integrated in the platforms. A suitable voltage stimulus protocol was used to activate the voltage-gated sodium channel proteins of interest. A suitable stimulus protocol consisted of eight voltage pulses, each to −20 mV and 50 ms in length, and separated from each other by 330 ms intervals at a potential of −90 mV, or −65 mV.
Electrophysiological studies can also be performed using the whole cell configuration of the standard patch clamp technique as described in the literature (26). In this assay, cells that express the human voltage-gated sodium channel protein of interest are exposed to the drugs by conventional microperfusion systems and a suitable voltage stimulus protocol is used to activate the voltage-gated sodium channels.

T1 sequence (Q15858 whole entry): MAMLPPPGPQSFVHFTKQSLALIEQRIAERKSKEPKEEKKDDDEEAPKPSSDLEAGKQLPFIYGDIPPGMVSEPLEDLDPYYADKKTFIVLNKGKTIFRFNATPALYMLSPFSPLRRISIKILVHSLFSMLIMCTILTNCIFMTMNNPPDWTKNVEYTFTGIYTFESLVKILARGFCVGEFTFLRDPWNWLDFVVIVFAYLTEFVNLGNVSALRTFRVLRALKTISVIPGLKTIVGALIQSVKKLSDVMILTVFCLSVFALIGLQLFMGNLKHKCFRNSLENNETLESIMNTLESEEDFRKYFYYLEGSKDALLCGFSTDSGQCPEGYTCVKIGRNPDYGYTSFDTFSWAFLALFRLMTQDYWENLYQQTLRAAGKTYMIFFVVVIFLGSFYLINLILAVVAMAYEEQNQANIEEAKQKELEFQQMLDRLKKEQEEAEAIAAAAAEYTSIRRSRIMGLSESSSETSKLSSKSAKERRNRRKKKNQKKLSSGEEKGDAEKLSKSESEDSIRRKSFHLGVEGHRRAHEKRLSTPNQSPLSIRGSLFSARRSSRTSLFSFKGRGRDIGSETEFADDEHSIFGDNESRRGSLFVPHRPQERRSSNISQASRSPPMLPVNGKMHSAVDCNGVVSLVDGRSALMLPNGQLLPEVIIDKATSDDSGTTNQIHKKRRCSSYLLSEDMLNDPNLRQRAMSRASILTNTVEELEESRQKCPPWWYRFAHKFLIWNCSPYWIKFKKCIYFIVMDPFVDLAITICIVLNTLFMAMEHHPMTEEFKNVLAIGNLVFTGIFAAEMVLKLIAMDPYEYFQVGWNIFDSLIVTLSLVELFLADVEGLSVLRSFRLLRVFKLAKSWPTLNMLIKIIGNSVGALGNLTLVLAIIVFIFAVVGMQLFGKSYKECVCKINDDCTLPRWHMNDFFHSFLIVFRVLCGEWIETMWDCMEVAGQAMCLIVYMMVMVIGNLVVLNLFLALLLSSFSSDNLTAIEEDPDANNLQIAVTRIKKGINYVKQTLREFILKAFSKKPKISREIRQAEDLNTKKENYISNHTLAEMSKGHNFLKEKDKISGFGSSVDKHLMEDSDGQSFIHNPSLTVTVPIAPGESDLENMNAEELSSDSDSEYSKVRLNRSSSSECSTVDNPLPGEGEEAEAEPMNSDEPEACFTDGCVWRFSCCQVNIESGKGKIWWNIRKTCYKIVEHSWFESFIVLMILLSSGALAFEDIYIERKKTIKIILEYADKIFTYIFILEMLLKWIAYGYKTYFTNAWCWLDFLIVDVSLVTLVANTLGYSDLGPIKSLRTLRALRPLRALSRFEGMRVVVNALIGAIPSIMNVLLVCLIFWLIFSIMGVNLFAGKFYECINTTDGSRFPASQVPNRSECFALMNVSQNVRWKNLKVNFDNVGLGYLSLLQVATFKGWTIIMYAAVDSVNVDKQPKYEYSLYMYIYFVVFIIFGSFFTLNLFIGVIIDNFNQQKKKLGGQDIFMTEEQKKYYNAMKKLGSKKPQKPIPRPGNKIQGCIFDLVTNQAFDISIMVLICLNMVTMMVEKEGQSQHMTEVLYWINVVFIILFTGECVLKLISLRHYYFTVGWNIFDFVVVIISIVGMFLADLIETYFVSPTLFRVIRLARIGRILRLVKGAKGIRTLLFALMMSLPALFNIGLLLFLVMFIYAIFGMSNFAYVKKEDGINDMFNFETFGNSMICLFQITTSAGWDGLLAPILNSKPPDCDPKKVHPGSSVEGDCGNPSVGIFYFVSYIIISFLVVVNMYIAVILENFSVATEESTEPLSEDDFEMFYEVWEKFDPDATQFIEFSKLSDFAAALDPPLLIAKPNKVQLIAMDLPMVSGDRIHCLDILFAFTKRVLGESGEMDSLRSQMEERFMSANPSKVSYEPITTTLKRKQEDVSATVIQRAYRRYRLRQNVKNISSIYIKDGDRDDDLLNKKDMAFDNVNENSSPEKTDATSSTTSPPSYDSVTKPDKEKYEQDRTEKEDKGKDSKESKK

IC50	SMILES
316 nM	COc1ccccc1CN1C(=O)c2ccccc2C1C(=O)Nc1c(C)cccc1Cl (stereo not shown) [Example 2, N-(2-chloro-6-methylphenyl)-2-(2-methoxybenzyl)-3-oxoisoindoline-1-carboxamide]
200 nM	Cc1cccc(C)c1NC(=O)C1c2ccccc2C(=O)N1CCOc1cc(C(F)(F)F)ccc1F (stereo not shown) [Example 15, N-(2,6-dimethylphenyl)-2-{2-[2-fluoro-5-(trifluoromethyl)phenoxy]ethyl}-3-oxoisoindoline-1-carboxamide]
251 nM	COc1ccccc1CN1C(=O)c2ccccc2C1C(=O)Nc1c(Cl)cccc1Cl (stereo not shown) [Example 16, N-(2,6-dichlorophenyl)-2-(2-methoxybenzyl)-3-oxoisoindoline-1-carboxamide]
100 nM	COc1cc(F)ccc1CN1C(=O)c2ccccc2C1C(=O)Nc1c(C)cccc1C (stereo not shown) [Example 38, N-(2,6-dimethylphenyl)-2-(4-fluoro-2-methoxybenzyl)-3-oxoisoindoline-1-carboxamide]
